pIC50: −log10 of the molar value.
System: 435261-313-R-J1-PDC tumor spheroid viability
Assay: Anticancer human tumor 435261-313-R-J1-PDC patient-derived colon adenocarcinoma cell line growth inhibition [PI3K]
Settings: spheroids with HUVEC and MSC; for pIC50: curve of first compound; for viability, T/C: stronger effect = lower value
Source text: Combinatorial screen of targeted agents with the PI3K inhibitors inavolisib, alpelisib, duvelisib, and copanlisib in multi-cell type tumor spheroids
A high-throughput screen of multi-cell type tumor spheroids was designed to identify active combinations of targeted small molecules and PI3K pathway inhibitors. Complex spheroids include a stromal component modeled by human endothelial cells (HUVEC) and fibroblasts modeled by human mesenchymal stem cells (MSCs). The concentration ranges selected for each drug and investigational agent were based upon clinically achievable concentrations if the clinical Cmax of the agent was known.
Compounds. The drugs and investigational agents: inavolisib (NSC800729), alpelisib (NSC765974), duvelisib (NSC772469), copanlisib (NSC816437), ipatasertib (NSC767898), afuresertib (NSC778305), talazoparib (NSC767125), sapanisertib (NSC764658), selumetinib (NSC741078), tovorafenib (DAY101, NSC766906), vemurafenib (NSC761431), ravoxertinib (NSC781343), sotorasib (NSC818433), MRTX1133 (NSC 836407), abemaciclib (NSC 768073), palbociclib (NSC758247), venetoclax (NSC 766270), SY5609 (NSC837396), enzalutamide (NSC755605), and darolutamide (NSC825331), were obtained from the National Cancer Institute (NCI) Developmental Therapeutics Program Chemical Repository. The FDA-approved anticancer drug set is available from the NCI Developmental Therapeutics Program. […] The stock solutions were prepared in dimethyl sulfoxide (DMSO, Sigma-Aldrich, St. Louis, MO, cat. D2650) at 800-fold the tested concentration and stored at -70 degrees C prior to their use. All drugs and investigational agents were tested over a range starting from a high concentration at or near the clinical Cmax and decreasing in half-log increments. If the clinical Cmax for an agent had not been determined, the highest concentration tested was 10 microM.
Cell Culture. All cells were maintained in an incubator at 37 degrees C and 5% CO2 with 95% humidity. The PDC lines were cultured according to standard operating procedures established by the NCI PDMR (https://pdmr.cancer.gov/sops/default.htm). All PDCs were thawed and cultured in Matrigel-coated flasks prepared with a working solution of 1X Ham's F-12 nutrient mix, without supplementation (Invitrogen, Waltham, MA, cat. 11765054), 100 U/mL penicillin-streptomycin (Invitrogen, cat. 15140122), and 2.5% Matrigel (Corning Inc., Corning, NY, cat. 354248) for the first three passages. The 354836-022-R-J1-PDC, 475296-252-R-J1-PDC, and 997726-040-R-J2-PDC lines were cultured in 6A media, which includes advanced DMEM/F-12 (Thermo Fisher Scientific, cat. 12634028), 10 mM HEPES (Thermo Fisher Scientific, cat. 15630080), 1X GlutaMAX supplement (Thermo Fisher Scientific, cat. 35050061), 0.1 mg/mL primocin (InvivoGen, San Diego, CA, cat. ant-pm-2), 10% defined fetal bovine serum, heat inactivated (HyClone Laboratories Inc., Logan, UT, cat. SH30070.03HI), 50% L-WRN conditioned media (ATCC, cat. CRL-3276), 1.25 mM N-Acetyl-L-cysteine (Sigma-Aldrich, cat. A9165), 10 mM nicotinamide (Sigma-Aldrich, cat. N0636), 1X B-27 supplement (Thermo Fisher Scientific, cat. 17504044), 1X N-2 supplement (Thermo Fisher Scientific, cat. 17502048), and 10 microM Y-27632 dihydrochloride (Tocris Bioscience, Bristol, United Kingdom, cat. 1254). The 624824-186-R-J2-PDC line was cultured in 6C/Colon 1B media, which includes all 6A media components plus 50 ng/mL human EGF recombinant protein (Thermo Fisher Scientific, cat. PHG0311). […]
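Also: spheroids exposed to compounds for 7 days.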

With `CC(=O)c1c(C)c2cnc(Nc3ccc(N4CCNCC4)cn3)nc2n(C2CCCC2)c1=O` + CC(Nc1ccc2c(c1)OCCn1cc(N3C(=O)OCC3C(F)F)nc1-2)C(N)=O as the compound, how does the pIC50 (second compound 0.00316 µM) read?
The pIC50 was < 7.00.

What about the pIC50 (second compound 0.01 µM) of the same compound?
The pIC50 was < 7.00.

What about the pIC50 (second compound 0.0316 µM) of the same compound?
Its pIC50 is 7.16.

And the pIC50 (second compound 0.1 µM)?
Its pIC50 is 9.34.

What about the pIC50 (second compound 0.316 µM) of the same compound?
Its pIC50 is > 9.50.

What about the pIC50 (second compound 1 µM) of the same compound?
Its pIC50 is > 9.50.

What about the viability, T/C (second compound 0.00316 µM, first compound 0.000316 µM) of the same compound?
The viability, T/C was 78.8%.

What about the viability, T/C (second compound 0.00316 µM, first compound 0.001 µM) of the same compound?
Its viability, T/C is 91.4%.

And the viability, T/C (second compound 0.00316 µM, first compound 0.00316 µM)?
The viability, T/C was 92.8%.

And the viability, T/C (second compound 0.00316 µM, first compound 0.01 µM)?
Its viability, T/C is 82.7%.

And the viability, T/C (second compound 0.00316 µM, first compound 0.0316 µM)?
The viability, T/C was 84.2%.

What about the viability, T/C (second compound 0.00316 µM, first compound 0.1 µM) of the same compound?
Its viability, T/C is 59.2%.

What about the viability, T/C (second compound 0.01 µM, first compound 0.000316 µM) of the same compound?
The viability, T/C was 94.7%.

What about the viability, T/C (second compound 0.01 µM, first compound 0.001 µM) of the same compound?
The viability, T/C was 83.6%.

And the viability, T/C (second compound 0.01 µM, first compound 0.00316 µM)?
Its viability, T/C is 100%.

And the viability, T/C (second compound 0.01 µM, first compound 0.01 µM)?
Its viability, T/C is 91.7%.

What about the viability, T/C (second compound 0.01 µM, first compound 0.0316 µM) of the same compound?
The viability, T/C was 87.5%.

And the viability, T/C (second compound 0.01 µM, first compound 0.1 µM)?
The viability, T/C was 68.6%.

And the viability, T/C (second compound 0.0316 µM, first compound 0.000316 µM)?
The viability, T/C was 64.2%.

What about the viability, T/C (second compound 0.0316 µM, first compound 0.001 µM) of the same compound?
The viability, T/C was 66.7%.

What about the viability, T/C (second compound 0.0316 µM, first compound 0.00316 µM) of the same compound?
The viability, T/C was 76.9%.

What about the viability, T/C (second compound 0.0316 µM, first compound 0.01 µM) of the same compound?
The viability, T/C was 86.2%.

What about the viability, T/C (second compound 0.0316 µM, first compound 0.0316 µM) of the same compound?
Its viability, T/C is 69.1%.

What about the viability, T/C (second compound 0.0316 µM, first compound 0.1 µM) of the same compound?
Its viability, T/C is 40.4%.

What about the viability, T/C (second compound 0.1 µM, first compound 0.000316 µM) of the same compound?
Its viability, T/C is 49.2%.

What about the viability, T/C (second compound 0.1 µM, first compound 0.001 µM) of the same compound?
Its viability, T/C is 52.7%.

And the viability, T/C (second compound 0.1 µM, first compound 0.00316 µM)?
The viability, T/C was 38.8%.

And the viability, T/C (second compound 0.1 µM, first compound 0.01 µM)?
The viability, T/C was 32.5%.

What about the viability, T/C (second compound 0.1 µM, first compound 0.0316 µM) of the same compound?
Its viability, T/C is 33.6%.

And the viability, T/C (second compound 0.1 µM, first compound 0.1 µM)?
Its viability, T/C is 23.6%.

What about the viability, T/C (second compound 0.316 µM, first compound 0.000316 µM) of the same compound?
The viability, T/C was 21.7%.

And the viability, T/C (second compound 0.316 µM, first compound 0.001 µM)?
Its viability, T/C is 22%.

And the viability, T/C (second compound 0.316 µM, first compound 0.00316 µM)?
Its viability, T/C is 19.3%.

And the viability, T/C (second compound 0.316 µM, first compound 0.01 µM)?
The viability, T/C was 21.5%.

And the viability, T/C (second compound 0.316 µM, first compound 0.0316 µM)?
Its viability, T/C is 20.5%.

And the viability, T/C (second compound 0.316 µM, first compound 0.1 µM)?
The viability, T/C was 18.1%.

What about the viability, T/C (second compound 1 µM, first compound 0.000316 µM) of the same compound?
Its viability, T/C is 16.8%.

What about the viability, T/C (second compound 1 µM, first compound 0.001 µM) of the same compound?
Its viability, T/C is 17.1%.

What about the viability, T/C (second compound 1 µM, first compound 0.00316 µM) of the same compound?
The viability, T/C was 17.7%.

What about the viability, T/C (second compound 1 µM, first compound 0.01 µM) of the same compound?
Its viability, T/C is 16.5%.

And the viability, T/C (second compound 1 µM, first compound 0.0316 µM)?
The viability, T/C was 18.2%.

What about the viability, T/C (second compound 1 µM, first compound 0.1 µM) of the same compound?
The viability, T/C was 12.2%.
